From patent publication US8729082B2, “Substituted imidazoquinoxalines” (Bayer Intellectual Property GmbH, priority 2009, dated 2014)

Molecular target: T1, human kinase Mps-1 (Homo sapiens, UniProt P33981)
T1 construct: N-terminally GST-tagged human full length recombinant Mps-1 kinase; purchased Invitrogen, Karslruhe, Germany PV4071
T1 sequence (P33981 1-857): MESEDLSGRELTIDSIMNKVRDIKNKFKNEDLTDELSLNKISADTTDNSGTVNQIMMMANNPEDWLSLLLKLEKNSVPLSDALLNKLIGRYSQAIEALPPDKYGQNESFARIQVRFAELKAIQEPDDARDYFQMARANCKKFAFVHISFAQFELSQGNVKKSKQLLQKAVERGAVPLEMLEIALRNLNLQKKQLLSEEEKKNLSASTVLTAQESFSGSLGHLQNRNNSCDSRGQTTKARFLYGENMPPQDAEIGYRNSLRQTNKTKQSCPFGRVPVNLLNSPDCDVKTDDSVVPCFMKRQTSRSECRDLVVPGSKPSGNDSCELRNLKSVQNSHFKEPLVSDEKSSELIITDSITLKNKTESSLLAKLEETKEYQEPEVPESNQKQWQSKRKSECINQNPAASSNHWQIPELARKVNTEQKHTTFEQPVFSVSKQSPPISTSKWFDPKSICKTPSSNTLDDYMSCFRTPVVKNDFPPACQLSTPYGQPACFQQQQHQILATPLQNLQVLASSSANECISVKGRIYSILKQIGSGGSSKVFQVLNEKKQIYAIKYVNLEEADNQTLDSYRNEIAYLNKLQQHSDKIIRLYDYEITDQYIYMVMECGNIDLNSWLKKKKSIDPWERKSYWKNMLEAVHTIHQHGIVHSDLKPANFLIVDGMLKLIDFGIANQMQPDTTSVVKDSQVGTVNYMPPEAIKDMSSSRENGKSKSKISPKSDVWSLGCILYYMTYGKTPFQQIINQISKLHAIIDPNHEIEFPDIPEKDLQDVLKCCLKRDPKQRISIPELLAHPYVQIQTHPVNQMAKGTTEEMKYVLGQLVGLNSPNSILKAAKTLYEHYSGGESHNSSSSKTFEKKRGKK
Experiment: Mps-1 kinase assay (HTRF)
Format: biochemical
Conditions: lowATP; mean; read-out: Mps1 lowATP mean IC50
Procedure, shortened: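 HTRF readout: EDTA-stopped reactions incubated 1 h with europium anti-phospho(Ser/Thr) antibody and streptavidin-XLent, emission ratio 665/620 nm after 350 nm excitation. Kinase step: compound pre-bound 15 min to ~1 nM GST-Mps-1, then 60 min at 22 °C with ATP and biotin-peptide substrate; inhibition scaled between no-inhibitor (0%) and no-enzyme (100%) controls.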

| IC50 [nM] | Compound |
| --- | --- |
| 6700 | COCCNc1nc2ccc(F)cc2n2c(-c3ccc(C(=O)NC4CC4)c(Cl)c3)cnc12 [Example 2-78, 2-chloro-N-cyclopropyl-4-{8-fluoro-4-[(2-methoxyethyl)amino]imidazo[1,2-a]quinoxalin-1-yl}benzamide] |
| 1330 | O=C(NC1CC1)c1ccc(-c2cnc3c(NCCCCO)nc4ccc(F)cc4n23)cc1Cl [Example 2-79, 2-chloro-N-cyclopropyl-4-{8-fluoro-4-[(4-hydroxybutyl)amino[imidazo]1,2-a]quinoxalin-1-yl}benzamide] |
| 3040 | O=C(NC1CC1)c1ccc(-c2cnc3c(NCCCO)nc4ccc(F)cc4n23)cc1Cl [Example 2-80, 2-chloro-N-cyclopropyl-4-{8-fluoro-4-[(3-hydroxypropyl)amino]imidazo[1,2-a]quinoxalin-1-yl}benzamide] |
| 1420 | O=C(NC1CC1)c1ccc(-c2cnc3c(NCc4cccnc4)nc4ccc(F)cc4n23)cc1Cl [Example 2-81, 2-chloro-N-cyclopropyl-4-{8-fluoro-4-[(pyridin-3-ylmethyl)amino]imidazo[1,2-a]quinoxalin-1-yl}benzamide] |
| 1090 | O=C(NC1CC1)c1ccc(-c2cnc3c(NCc4ccncc4)nc4ccc(F)cc4n23)cc1Cl [Example 2-82, 2-chloro-N-cyclopropyl-4-{8-fluoro-4-[(pyridin-4-ylmethyl)amino]imidazo[1,2-a]quinoxalin-1-yl}benzamide] |
| 6700 | COCCCNc1nc2ccc(F)cc2n2c(-c3ccc(C(=O)NC4CC4)c(Cl)c3)cnc12 [Example 2-83, 2-chloro-N-cyclopropyl-4-{8-fluoro-4-[(3-methoxypropyl)amino]imidazo[1,2-a]quinoxalin-1-yl}benzamide] |
| 2880 | CC(C)(C)OC(=O)NCCCNc1nc2ccc(F)cc2n2c(-c3ccc(C(=O)NC4CC4)c(Cl)c3)cnc12 [Example 2-84, tert-butyl [3-({1-[3-chloro-4-(cyclopropylcarbamoyl)phenyl]-8-fluoroimidazo[1,2-a]quinoxalin-4-yl}amino)propyl]carbamate] |
| 761 | Cn1nccc1CNc1nc2ccc(F)cc2n2c(-c3ccc(C(=O)NC4CC4)c(Cl)c3)cnc12 [Example 2-85, 2-chloro-N-cyclopropyl-4-(8-fluoro-4-{[(1-methyl-1H-pyrazol-5-yl)methyl]amino}imidazo[1,2-a]quinoxalin-1-yl)benzamide] |
| 1640 | Cn1cc(CNc2nc3ccc(F)cc3n3c(-c4ccc(C(=O)NC5CC5)c(Cl)c4)cnc23)cn1 [Example 2-86, 2-chloro-N-cyclopropyl-4-(8-fluoro-4-{[(1-methyl-1H-pyrazol-4-yl)methyl]amino}imidazo[1,2-a]quinoxalin-1-yl)benzamide] |
| 28.6 | CCCNc1nc2cc(F)c(F)cc2n2c(-c3ccc(C(=O)NC4CC4)cc3)cnc12 [Example 2-88, N-cyclopropyl-4-[7,8-difluoro-4-(propylamino)imidazo[1,2-a]quinoxalin-1-yl]benzamide] |
| 286 | O=C(NC1CC1)c1ccc(-c2cnc3c(NCCO)nc4cc(F)c(F)cc4n23)cc1 [Example 2-89, N-cyclopropyl-4-{7,8-difluoro-4-[(2-hydroxyethyl)amino]imidazo[1,2-a]quinoxalin-1-yl}benzamide] |
| 438 | O=C(NC1CC1)c1ccc(-c2cnc3c(NCCCN4CCOCC4)nc4cc(F)c(F)cc4n23)cc1 [Example 2-90, N-cyclopropyl-4-(7,8-difluoro-4-{[3-(morpholin-4-yl)propyl]amino}imidazo[1,2-a]quinoxalin-1-yl)benzamide] |
| 55.5 | CC(C)CCNc1nc2cc(F)c(F)cc2n2c(-c3ccc(C(=O)NC4CC4)cc3)cnc12 [Example 2-91, N-cyclopropyl-4-{7,8-difluoro-4-[(3-methylbutyl)amino]imidazo[1,2-a]quinoxalin-1-yl}benzamide] |
| 143 | O=C(NC1CC1)c1ccc(-c2cnc3c(NCc4cccc(F)c4)nc4cc(F)c(F)cc4n23)cc1 [Example 2-92, N-cyclopropyl-4-{7,8-difluoro-4-[(3-fluorobenzyl)amino]imidazo[1,2-a]quinoxalin-1-yl}benzamide] |
| 382 | O=C(NC1CC1)c1ccc(-c2cnc3c(NCCCN4CCCC4=O)nc4cc(F)c(F)cc4n23)cc1 [Example 2-93, N-cyclopropyl-4-(7,8-difluoro-4-{[3-(2-oxopyrrolidin-1-yl)propyl]amino}imidazo[1,2-a]quinoxalin-1-yl)benzamide] |
| 161 | COCCNc1nc2cc(F)c(F)cc2n2c(-c3ccc(C(=O)NC4CC4)cc3)cnc12 [Example 2-94, N-cyclopropyl-4-{7,8-difluoro-4-[(2-methoxyethyl)amino]imidazo[1,2-a]quinoxalin-1-yl}benzamide] |
| 75.8 | O=C(NC1CC1)c1ccc(-c2cnc3c(NCc4ccc(F)cc4)nc4cc(F)c(F)cc4n23)cc1 [Example 2-95, N-cyclopropyl-4-{7,8-difluoro-4-[(4-fluorobenzyl)amino]imidazo[1,2-a]quinoxalin-1-yl}benzamide] |
| 59.5 | O=C(NC1CC1)c1ccc(-c2cnc3c(NCCCCO)nc4cc(F)c(F)cc4n23)cc1 [Example 2-96, N-cyclopropyl-4-{7,8-difluoro-4-[(4-hydroxybutyl)amino]imidazo[1,2-a]quinoxalin-1-yl}benzamide] |
| 93.7 | O=C(NC1CC1)c1ccc(-c2cnc3c(NCC(F)(F)F)nc4cc(F)c(F)cc4n23)cc1 [Example 2-97, N-cyclopropyl-4-{7,8-difluoro-4-[(2,2,2-trifluoroethyl)amino]imidazo[1,2-a]quinoxalin-1-yl}benzamide] |
| 62.2 | O=C(NC1CC1)c1ccc(-c2cnc3c(NCc4cccs4)nc4cc(F)c(F)cc4n23)cc1 [Example 2-98, N-cyclopropyl-4-{7,8-difluoro-4-[(thiophen-2-ylmethyl)amino]imidazo[1,2-a]quinoxalin-1-yl}benzamide] |
| 59.8 | CCNc1nc2cc(F)c(F)cc2n2c(-c3ccc(C(=O)NC4CC4)cc3)cnc12 [Example 2-99, N-cyclopropyl-4-[4-(ethylamino)-7,8-difluoroimidazo[1,2-a]quinoxalin-1-yl]benzamide] |
| 75.3 | O=C(NC1CC1)c1ccc(-c2cnc3c(NCCCO)nc4cc(F)c(F)cc4n23)cc1 [Example 2-100, N-cyclopropyl-4-{7,8-difluoro-4-[(3-hydroxypropyl)amino]imidazo[1,2-a]quinoxalin-1-yl}benzamide] |
| 28.3 | CCCCNc1nc2cc(F)c(F)cc2n2c(-c3ccc(C(=O)NC4CC4)cc3)cnc12 [Example 2-101, 4-[4-(butylamino)-7,8-difluoroimidazo[1,2-a]quinoxalin-1-yl]-N-cyclopropylbenzamide] |
| 584 | CC(=O)NCCNc1nc2cc(F)c(F)cc2n2c(-c3ccc(C(=O)NC4CC4)cc3)cnc12 [Example 2-102, 4-(4-{[2-(acetylamino)ethyl]amino}-7,8-difluoroimidazo[1,2-a]quinoxalin-1-yl)-N-cyclopropylbenzamide] |
| 229 | O=C(NC1CC1)c1ccc(-c2cnc3c(NCCCn4ccnc4)nc4cc(F)c(F)cc4n23)cc1 [Example 2-103, N-cyclopropyl-4-(7,8-difluoro-4-{[3-(1H-imidazol-1-yl)propyl]amino}imidazo[1,2-a]quinoxalin-1-yl)benzamide] |
| 34.1 | O=C(NC1CC1)c1ccc(-c2cnc3c(NCC4CC4)nc4cc(F)c(F)cc4n23)cc1 [Example 2-104, N-cyclopropyl-4-{4-[(cyclopropylmethyl)amino]-7,8-difluoroimidazo[1,2-a]quinoxalin-1-yl}benzamide] |
| 52.8 | O=C(NC1CC1)c1ccc(-c2cnc3c(NCc4ccco4)nc4cc(F)c(F)cc4n23)cc1 [Example 2-105, N-cyclopropyl-4-{7,8-difluoro-4-[(furan-2-ylmethyl)amino]imidazo[1,2-a]quinoxalin-1-yl}benzamide] |
| 24.5 | CC(C)CNc1nc2cc(F)c(F)cc2n2c(-c3ccc(C(=O)NC4CC4)cc3)cnc12 [Example 2-106, N-cyclopropyl-4-{7,8-difluoro-4-[(2-methylpropyl)amino]imidazo[1,2-a]quinoxalin-1-yl}benzamide] |
| 233 | NC(=O)CCNc1nc2cc(F)c(F)cc2n2c(-c3ccc(C(=O)NC4CC4)cc3)cnc12 [Example 2-107, 4-{4-[(3-amino-3-oxopropyl)amino]-7,8-difluoroimidazo[1,2-a]quinoxalin-1-yl}-N-cyclopropylbenzamide] |
| 114 | COCCCNc1nc2cc(F)c(F)cc2n2c(-c3ccc(C(=O)NC4CC4)cc3)cnc12 [Example 2-108, N-cyclopropyl-4-{7,8-difluoro-4-[(3-methoxypropyl)amino]imidazo[1,2-a]quinoxalin-1-yl}benzamide] |
